Laboratory results: the supplement of paper PMC10307832

Legend:
[1] = compound: C1=CC2=NC=CN=C2C=C1/C=C/3\C(=O)NC(=O)S3 + O=C(CCCCCCC(=O)Nc1ccccc1)NO [Vorinostat] (partner 1 µM); assay: relative viability (nuclei count vs DMSO), 5 days (fraction); higher = more cells survive
How it was run: (§1)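 A single step with final 0.05% Triton X-100, 1% formaldehyde and 1 ug/ml Hoechst fixed the cells and stained nuclei 5 days after treatment. Lung cancer cell lines in 1536-well plates had been treated by pin tool the day after seeding with one drug alone or a fixed anchor-drug dose plus five library-drug doses (not always all listed) in √10 steps, and nuclei were counted on 4× images. Relative viability is the ratio of nuclei in treated wells to nuclei in vehicle wells, taken as the median of duplicate plates.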

[2] = compound: C1=CC2=NC=CN=C2C=C1/C=C/3\C(=O)NC(=O)S3 + NC(=O)Nc1cc(-c2cccc(F)c2)sc1C(=O)N[C@H]1CCCNC1 [AZD7762] (partner 0.2 µM); assay: as above
How it was run: as §1

Row | Cell Line | relative viability ([1]; first compound 0.02 µM) | relative viability ([1]; first compound 0.06325 µM) | relative viability ([1]; first compound 0.2 µM) | relative viability ([1]; first compound 0.6325 µM) | relative viability ([1]; first compound 2 µM) | relative viability ([2]; first compound 0.02 µM) | relative viability ([2]; first compound 0.06325 µM) | relative viability ([2]; first compound 0.2 µM) | relative viability ([2]; first compound 0.6325 µM) | relative viability ([2]; first compound 2 µM)
1 | 201T | 0.763 | 0.949 | 0.985 | 0.898 | 0.723 | 0.651 | 0.531 | 0.625 | 0.609 | 0.576
2 | A-427 | 0.791 | 0.877 | 0.888 | 0.864 | 0.947 | 0.826 | 0.849 | 0.709 | 0.8 | 0.776
3 | ABC-1 | 1.27 | 1.16 | 1.56 | 1.01 | 0.912 | 0.696 | 1.23 | 1.1 | 0.819 | 0.957
4 | BEN | 0.506 | 0.553 | 0.539 | 0.52 | 0.477 | 0.727 | 0.701 | 0.842 | 0.627 | 0.497
5 | CAL-12T | 0.78 | 0.923 | 0.663 | 0.629 | 0.762 | 0.675 | 0.531 | 0.655 | 0.582 | 0.726
6 | COR-L23 | 0.39 | 0.486 | 0.471 | 0.408 | 0.345 |  |  |  |  | 
7 | COR-L 105 | 0.694 | 0.872 | 0.697 | 0.605 | 0.835 |  |  |  |  | 
8 | ChaGo-K-1 | 0.742 | 0.544 | 0.756 | 0.662 | 0.652 | 0.799 | 0.821 | 0.905 | 0.791 | 0.83
9 | EKVX | 0.704 | 0.576 | 0.761 | 0.709 | 0.594 | 0.677 | 0.653 | 0.595 | 0.692 | 0.436
10 | EMC-BAC-2 | 0.488 | 0.535 | 0.602 | 0.452 | 0.222 | 1.11 | 1.18 | 1.21 | 1.08 | 0.651
11 | EPLC-272H | 0.385 | 0.411 | 0.562 | 0.413 | 0.524 | 0.332 | 0.319 | 0.333 | 0.192 | 0.293
12 | H3255 | 0.781 | 0.884 | 0.835 | 0.865 | 0.67 | 0.716 | 0.819 | 0.903 | 0.901 | 0.825
13 | HARA | 0.548 | 0.463 | 0.522 | 0.487 | 0.406 | 0.255 | 0.209 | 0.402 | 0.276 | 0.493
14 | HCC-15 | 0.733 | 0.737 | 0.872 | 0.844 | 0.702 | 1.01 | 1.05 | 1.16 | 1.18 | 1
15 | HCC-44 | 0.959 | 1.13 | 1.08 | 1.13 | 1.17 | 0.885 | 1 | 1.02 | 1.01 | 1
16 | HCC-78 | 0.464 | 0.428 | 0.379 | 0.449 | 0.349 | 0.681 | 0.567 | 0.684 | 0.732 | 0.202
17 | HCC-366 | 0.293 |  | 0.436 | 0.305 | 0.204 | 0.276 |  | 0.247 | 0.235 | 0.303
18 | HCC-827 | 0.797 | 0.702 | 0.833 | 0.874 | 0.465 | 0.218 | 0.155 | 0.261 | 0.265 | 0.114
19 | HOP-62 | 0.571 | 0.694 | 0.732 | 0.581 | 0.571 | 0.847 | 0.91 | 0.516 | 0.434 | 0.685
20 | IA-LM | 0.884 | 0.467 | 0.964 | 0.985 | 0.968 |  |  |  |  | 

Row | Cell Line | relative viability ([1]; first compound 0.02 µM) | relative viability ([1]; first compound 0.06325 µM) | relative viability ([1]; first compound 0.2 µM) | relative viability ([1]; first compound 0.6325 µM) | relative viability ([1]; first compound 2 µM) | relative viability ([2]; first compound 0.02 µM) | relative viability ([2]; first compound 0.06325 µM) | relative viability ([2]; first compound 0.2 µM) | relative viability ([2]; first compound 0.6325 µM) | relative viability ([2]; first compound 2 µM)
21 | LC-2-ad | 0.589 | 0.768 | 0.707 | 0.668 | 0.434 | 0.768 | 0.817 | 0.848 | 0.798 | 0.619
22 | LCLC-97TM1 | 0.617 | 0.637 | 0.659 | 0.576 | 0.153 | 0.21 | 0.219 | 0.253 | 0.269 | 0.113
23 | LCLC-103H | 0.694 | 0.804 | 0.846 | 0.685 | 0.651 | 0.658 | 0.886 | 0.828 | 0.749 | 0.629
24 | LK-2 | 0.245 | 0.353 | 0.37 | 0.213 | 0.169 | 0.43 | 0.538 | 0.466 | 0.4 | 0.14
25 | LOU-NH91 | 0.965 | 0.887 | 0.987 | 0.908 | 0.727 | 0.74 | 0.755 | 0.797 | 0.733 | 0.55
26 | LU99A | 0.425 | 0.515 | 0.506 | 0.42 | 0.268 | 0.392 | 0.352 | 0.369 | 0.36 | 0.223
27 | LXF-289 | 0.778 | 0.576 | 0.73 | 0.778 | 0.852 | 1.06 | 0.975 | 1.1 | 0.986 | 1.18
28 | NCI-H23 | 0.508 | 0.588 | 0.697 | 0.546 | 0.385 | 0.227 | 0.242 | 0.227 | 0.182 | 0.21
29 | NCI-H322M | 0.893 | 0.852 | 0.905 | 0.891 | 0.744 | 0.559 | 0.598 | 0.607 | 0.51 | 0.498
30 | NCI-H358 | 0.674 | 0.714 | 0.725 | 0.659 | 0.579 | 0.556 | 0.406 | 0.621 | 0.473 | 0.204
31 | NCI-H441 | 0.794 | 0.786 | 0.948 | 0.845 | 0.509 | 1.07 | 1.18 | 1.3 | 1 | 1.1
32 | NCI-H460 | 0.657 | 0.668 | 0.759 | 0.716 | 0.819 | 0.581 | 0.438 | 0.576 | 0.621 | 0.456
33 | NCI-H520 | 0.879 | 0.834 | 0.645 | 0.802 | 0.677 |  |  |  |  | 
34 | NCI-H522 | 0.768 | 0.839 | 1.22 | 0.75 | 0.795 | 0.811 | 0.919 | 1.07 | 0.772 | 0.86
35 | NCI-H596 | 0.581 | 0.59 | 0.646 | 0.499 | 0.6 | 1.15 | 1.14 | 1.19 | 0.907 | 0.956
36 | NCI-H647 | 0.545 | 0.898 | 0.485 | 0.546 | 0.494 | 0.714 | 0.403 | 0.572 | 0.425 | 0.382
37 | NCI-H650 | 0.465 | 0.377 | 0.434 | 0.42 | 0.254 | 0.866 | 1.06 | 1.17 | 0.959 | 0.69
38 | NCI-H661 | 0.75 | 0.86 | 0.845 | 0.799 | 0.948 |  |  |  |  | 
39 | NCI-H727 | 1.23 | 1.15 | 1.23 | 1.22 | 0.679 | 0.597 | 0.63 | 0.737 | 0.678 | 0.337
40 | NCI-H838 | 0.674 | 0.702 | 0.762 | 0.686 | 0.579 | 0.915 | 0.915 | 0.914 | 0.861 | 0.685

Row | Cell Line | relative viability ([1]; first compound 0.02 µM) | relative viability ([1]; first compound 0.06325 µM) | relative viability ([1]; first compound 0.2 µM) | relative viability ([1]; first compound 0.6325 µM) | relative viability ([1]; first compound 2 µM) | relative viability ([2]; first compound 0.02 µM) | relative viability ([2]; first compound 0.06325 µM) | relative viability ([2]; first compound 0.2 µM) | relative viability ([2]; first compound 0.6325 µM) | relative viability ([2]; first compound 2 µM)
41 | NCI-H1355 | 0.584 | 0.571 | 0.623 | 0.631 | 0.519 | 0.789 | 0.67 | 0.749 | 0.691 | 0.544
42 | NCI-H1395 | 1 | 0.733 | 0.824 | 0.77 | 0.668 | 0.392 | 0.393 | 0.424 | 0.372 | 0.411
43 | NCI-H1437 | 0.728 | 0.874 | 0.815 | 0.811 | 0.815 | 1.18 | 1.11 | 1.09 | 1.09 | 0.609
44 | NCI-H1648 | 0.435 | 0.357 | 0.424 |  | 0.423 | 0.659 | 0.562 | 0.806 |  | 0.706
45 | NCI-H1650 | 0.572 | 0.556 | 0.589 | 0.525 | 0.512 |  |  |  |  | 
46 | NCI-H1651 | 0.504 | 0.502 | 0.6 | 0.588 | 0.483 | 0.472 | 0.289 | 0.508 | 0.471 | 0.417
47 | NCI-H1666 | 0.912 | 0.927 | 0.968 | 0.984 | 0.785 | 0.748 | 0.731 | 0.865 | 0.827 | 0.608
48 | NCI-H1703 |  |  |  |  |  | 0.126 | 0.109 | 0.135 | 0.124 | 0.128
49 | NCI-H1734 | 0.846 |  | 0.907 | 0.767 | 0.556 | 0.579 |  | 0.586 | 0.469 | 0.444
50 | NCI-H1755 | 0.681 | 0.695 | 0.832 | 0.858 | 0.818 | 0.473 | 0.405 | 0.47 | 0.399 | 0.476
51 | NCI-H1792 |  |  |  |  |  | 0.675 |  | 0.642 | 0.667 | 0.348
52 | NCI-H1793 | 0.635 | 0.616 | 0.765 | 0.676 | 0.679 | 0.573 | 0.271 | 0.612 | 0.309 | 0.347
53 | NCI-H2009 | 0.659 | 0.716 | 0.714 | 0.685 | 0.703 |  |  |  |  | 
54 | NCI-H2023 | 0.675 | 0.51 | 0.739 | 0.632 | 0.441 |  |  |  |  | 
55 | NCI-H2228 | 0.844 | 0.821 | 0.616 | 0.572 | 0.719 |  |  |  |  | 
56 | SK-LU-1 | 0.809 | 0.818 | 0.881 | 0.777 | 0.72 |  |  |  |  | 
57 | SK-MES-1 | 0.925 | 0.998 | 1.08 | 1.08 | 0.829 |  |  |  |  | 
58 | SW 1573 | 0.519 | 1.09 | 0.658 | 0.868 | 0.444 |  |  |  |  | 
59 | UMC-11 | 0.373 | 0.345 | 0.485 | 0.316 | 0.394 |  |  |  |  | 
